{"source": "patent US9532987B2", "about": "“Use of a combination of a MEK inhibitor and an ERK inhibitor for treatment of hyperproliferative diseases” (Genentech, Inc., priority 2013, dated 2017)", "origin": "cited, not measured here", "key": {"[1]": {"tested_on": "tumor cells bearing activating Ras mutations"}, "[2]": {"tested_on": "tumor cells bearing activating B-RAF mutations"}}}
{"smiles": "O=C(NOCCO)c1ccc2cncn2c1Nc1ccc(I)cc1F", "note": "[GDC-0623, 5-[(2-fluoro-4-iodophenyl)amino]-N-(2-hydroxyethoxy)-imidazo[1,5-a]pyridine-6-carboxamide]", "values": [{"measurement": "inhibition of tumor cell growth", "setting": "[1]", "value": "more activity"}, {"measurement": "inhibition of tumor cell growth", "setting": "[2]", "value": "effective"}]}
{"smiles": "O=C(c1ccc(F)c(F)c1Nc1ccc(I)cc1F)N1CC(O)([C@@H]2CCCCN2)C1", "note": "[GDC-0973, [3,4-difluoro-2-[(2-fluoro-4-iodophenyl)amino]phenyl][3-hydroxy-3-[(2S)-2-piperidinyl]-1-azetidinyl]methanone]", "values": [{"measurement": "inhibition of tumor cell growth", "setting": "[1]", "value": "effective"}, {"measurement": "inhibition of tumor cell growth", "setting": "[2]", "value": "more activity"}]}
